Where a name gives a salt, the structure may show the parent alone. One block for each molecule: values may come before it.
Tests used:
[1] = In vitro penetration across isolated human skin in modified Franz cells
Description: Penetration rates of HPPs and their parent drugs through human skin were measured in vitro by modified Franz cells. A Franz cell had two chambers, the top sample chamber and the bottom receiving chamber. The human skin tissue (360-400 μm thick) that separated the top and the receiving chambers was isolated from the anterior or posterior thigh areas.
A test compound (2 mL, 10% in 0.2 M phosphate buffer, pH 7.4) was added to the sample chamber of a Franz cell. The receiving chamber contained 10 ml of 0.2 M phosphate buffer which was stirred at 600 rpm. The amount of the tested compound penetrating the skin was determined by high-performance liquid chromatography (HPLC) method.

[2] = Conversion of HPPs to parent drugs in human plasma (half life); format: in vitro ADME; conditions: human, plasma
Description: HPPs of antimicrobials or antimicrobial-related compounds converted to the parent antimicrobials or antimicrobial-related compounds quickly in good yield in human plasma.
A HPP of antimicrobial or antimicrobial-related compound (10 mg) was dissolved in 0.1 ml of 0.2M pH 7.4 phosphate buffer. 1 ml of human plasma, preheated to 37° C., was added into the mixture. The mixture was kept in a water bath at 37° C., and at every 2 min intervals 0.2 ml of samples were withdrawn and added to 0.4 ml of methanol to precipitate the plasma protein.

[3] = Table 1b, isolated human skin, Franz cells, 10% in 0.2 M phosphate buffer pH 7.4, n=5

In vitro Penetration Rate (apparent flux), Parent compounds ([1]; human, 10 %, pH 7.4): <0.001 mg/cm^2/h
Compound: CC1(C)S[C@@H]2[C@H](NC(=O)[C@H](NC(=O)N3CCNC3=O)c3ccccc3)C(=O)N2[C@H]1C(=O)O [Azlocillin, reference compound]

Compound: CCN(CC)CCOC(=O)C1N2C(=O)C(NC(=O)[C@H](NC(C)=O)c3ccccc3)C2SC1(C)C.Cl (stereo partly drawn) [6-[D(−)-α-acetamidophenylacetamidopenicillinic acid 2-diethylaminoethyl ester hydrochloride]
Half life of HPPs in plasma [2]: 10 ± 1 min

In vitro Penetration Rate (apparent flux), Parent compounds ([1]; human, 10 %, pH 7.4): <0.001 mg/cm^2/h
Compound: CC1(C)S[C@@H]2[C@H](NC(=O)[C@H](NC(=O)N3CCN(S(C)(=O)=O)C3=O)c3ccccc3)C(=O)N2[C@H]1C(=O)O [Mezlocillin, reference compound]

Compound: CCN(CC)CCCOC(=O)C1=CC(=NNc2ccc(S(=O)(=O)Nc3ccccn3)cc2)C=CC1=O.Cl [sulfasalazine-DEPE, 6-oxo-3-(2-[4-(N-pyridin-2-ylsulfamoyl)phenyl]hydrazono)cyclohexa-1,4-dienecarboxylic acid N,N-diethyaminopropyl ester•HCl salt]
In vitro Penetration Rate (apparent flux), HPPs of sulfonamides, sulfones, quinolones ([1]; pH 7.4): 0.21 ± 0.03 mg/cm^2/h

Compound: CCN(CC)COP(=O)(CNC(=O)OCc1ccccc1)Oc1ccc([N+](=O)[O-])cc1.Cl (centres unmarked) [[(N-benzyloxycarbonylamino)methyl]-phosphonic acid (4-nitrophenyl)(N,N-diethylaminomethyl) ester•HCl salt]
In vitro Penetration Rate (apparent flux), HPPs of beta-lactamases inhibitors [1, 3]: 0.37 ± 0.03 mg/cm^2/h

Compound: CCCN(CCC)CCOC(=O)C1N2C(=O)C(NC(=O)c3c(OC)cccc3OC)C2SC1(C)C.Cl (centres unmarked) [6-(2,6-dimethoxybenzamido)penicillinic acid 2-dipropylaminoethyl ester hydrochloride]
In vitro Penetration Rate (apparent flux), HPPs ([1]; pH 7.4): 0.52 ± 0.07 mg/cm^2/h

Compound: CCOC(=O)C1N2C(=O)C(NC(=O)[C@H](N)c3ccccc3)C2SC1(C)C.Cl (stereo partly drawn) [6-[D(−)-α-aminophenylacetamidopenicillinic acid ethyl ester hydrochloride]
In vitro Penetration Rate (apparent flux), HPPs ([1]; pH 7.4): 0.82 ± 0.06 mg/cm^2/h

In vitro Penetration Rate (apparent flux), Parent compounds ([1]; human, 10 %, pH 7.4): <0.001 mg/cm^2/h
Compound: Cc1onc(-c2c(Cl)cccc2Cl)c1C(=O)N[C@@H]1C(=O)N2[C@@H]1SC(C)(C)[C@@H]2C(=O)O [Dicloxacillin, reference compound]

In vitro Penetration Rate (apparent flux), HPPs ([1]; pH 7.4): 0.72 ± 0.05 mg/cm^2/h
Compound: CC1(C)SC2C(NC(=O)[C@H](NC(=O)N3CCNC3=O)c3ccccc3)C(=O)N2C1C(=O)OCC1CCCN1.Cl (stereo partly drawn) [D-α-[(imidazolidin-2-on-1-yl)carbonylamino]benzylpenicillin 2-pyrrolidinemethyl ester hydrochloride]

Compound: CCN(CC)CCOC(=O)C1N2C(=O)[C@@H](NC(=O)C(NC(=O)N3CCN(S(C)(=O)=O)C3=O)c3ccccc3)C2SC1(C)C.Cl (stereo partly drawn) [6R-[2-[3-(methylsulfonyl)-2-oxo-1-imidazolidinecarboxamido]-2-phenylacetamido]penicillinic acid 2-diethylaminoethyl ester hydrochloride]
Half life of HPPs in plasma [2]: 13 ± 1 min

Compound: CC1(C)SC2C(NC(=O)C(NC(=O)N3CCN(S(C)(=O)=O)C3=O)c3ccccc3)C(=O)N2C1C(=O)OCCN1CCCC1.Cl (stereo not drawn) [6R-[2-[3-(methylsulfonyl)-2-oxo-1-imidazolidinecarboxamido]-2-phenylacetamido]penicillinic acid 1-pyrrolidineethyl ester hydrochloride]
In vitro Penetration Rate (apparent flux), HPPs ([1]; pH 7.4): 0.79 ± 0.07 mg/cm^2/h

Compound: C=CCSCC(=O)NC1C(=O)N2C1SC(C)(C)C2C(=O)OCCN(CC)CC.Cl (centres unmarked) [allylmercaptomethylpenicillinic acid 2-diethylaminoethyl ester hydrochloride]
Half life of HPPs in plasma [2]: 8 ± 1 min

Compound: O=C(O)[C@H]1/C(=C/CO)O[C@@H]2CC(=O)N21 [clavulanic acid, (2R,5R,Z)-3-(2-hydroxyethylidene)-7-oxo-4-oxa-1-aza-bicyclo[3.2.0]heptane-2-carboxylic acid, reference compound]
In vitro Penetration Rate (apparent flux), Parent compounds (beta-lactamases inhibitors) ([1]; human, 10 %, pH 7.4): <0.001 mg/cm^2/h

Compound: Cl.O=C(NCP(=O)(OCCN1CCCCC1)Oc1cccnc1)OCc1ccccc1 (centres unmarked) [[(N-benzyloxycarbonylamino)methyl]-phosphonic acid (3-pyridinyl)(1-piperidineethyl) ester•HCl salt]
In vitro Penetration Rate (apparent flux), HPPs of beta-lactamases inhibitors [1, 3]: 0.25 ± 0.04 mg/cm^2/h

Compound: O=C(NCP(=O)([O-])Oc1ccc([N+](=O)[O-])cc1)OCc1ccccc1.[Na+] [[(N-benzyloxycarbonylamino)methyl]-phosphonic acid mono-(4-nitrophenyl) ester sodium salt, reference compound]
In vitro Penetration Rate (apparent flux), Parent compounds (beta-lactamases inhibitors) [1, 3]: <0.001 mg/cm^2/h

Compound: Cc1onc(-c2c(Cl)cccc2Cl)c1C(=O)NC1C(=O)N2C1SC(C)(C)C2C(=O)OCCN1CCCCC1.Cl (centres unmarked) [6-[3-(2,6-dichlorophenyl)-5-methyl-4-isoxazolecarboxamido]penicillinic acid 1-piperidineethyl ester hydrochloride]
In vitro Penetration Rate (apparent flux), HPPs ([1]; pH 7.4): 0.58 ± 0.05 mg/cm^2/h

In vitro Penetration Rate (apparent flux), Parent compounds ([1]; human, 10 %, pH 7.4): <0.015 mg/cm^2/h
Compound: CCN1CCN(C(=O)N[C@@H](C(=O)N[C@@H]2C(=O)N3C(C(=O)O)=C(CSc4nnnn4C)CS[C@H]23)c2ccc(O)cc2)C(=O)C1=O [Cefoperazone, reference compound]

In vitro Penetration Rate (apparent flux), HPPs of beta-lactamases inhibitors ([1]; pH 7.4): 0.32 ± 0.03 mg/cm^2/h
Compound: C[C@]1(Cn2ccnn2)[C@H](C(=O)OCCN2CCCCC2)N2C(=O)C[C@H]2S1(=O)=O.Cl [tazobactam-PEE, [2S-(2alpha,3beta,5alpha)]-3-Methyl-7-oxo-3-(1H-1,2,3-triazol-1-ylmethyl)-4-thia-1-azabicyclo[3.2.0]heptane-2-carboxylic acid 4,4-dioxide 1-piperidineethyl ester•HCl salt]

Compound: O=C(NCP(=O)([O-])Oc1cccnc1)OCc1ccccc1.[Na+] [[(N-benzyloxycarbonylamino)methyl]-phosphonic acid mono-(3-pyridinyl) ester sodium salt, reference compound]
In vitro Penetration Rate (apparent flux), Parent compounds (beta-lactamases inhibitors) [1, 3]: <0.001 mg/cm^2/h

In vitro Penetration Rate (apparent flux), Parent compounds ([1]; human, 10 %, pH 7.4): <0.010 mg/cm^2/h
Compound: C=CC1=C(C(=O)O)N2C(=O)[C@@H](NC(=O)/C(=N\OCC(=O)O)c3csc(N)n3)[C@H]2SC1 [Cefixime, reference compound]

In vitro Penetration Rate (apparent flux), Parent compounds ([1]; pH 7.4): <0.001 mg/cm^2/h
Compound: C=CCSCC(=O)N[C@@H]1C(=O)N2[C@@H]1SC(C)(C)[C@@H]2C(=O)O [penicillin O, reference compound]

Compound: C=CCSCC(=O)NC1C(=O)N2C1SC(C)(C)C2C(=O)OCCN(C)C.Cl (centres unmarked) [Allylmercaptomethylpenicillinic acid 2-dimethylaminoethyl ester hydrochloride]
In vitro Penetration Rate (apparent flux), HPPs ([1]; pH 7.4): 0.65 ± 0.05 mg/cm^2/h

In vitro Penetration Rate (apparent flux), Parent compounds (beta-lactamases inhibitors) ([1]; human, 10 %, pH 7.4): <0.001 mg/cm^2/h
Compound: C[C@]1(Cn2ccnn2)[C@H](C(=O)O)N2C(=O)C[C@H]2S1(=O)=O [tazobactam, [2S-(2alpha,3beta,5alpha)]-3-Methyl-7-oxo-3-(1H-1,2,3-triazol-1-ylmethyl)-4-thia-1-azabicyclo[3.2.0]heptane-2-carboxylic acid 4,4-dioxide sodium salt, reference compound]

In vitro Penetration Rate (apparent flux), Parent compounds ([1]; human, 10 %, pH 7.4): <0.001 mg/cm^2/h
Compound: NCc1ccccc1CC(=O)N[C@@H]1C(=O)N2C(C(=O)O)=C(CSc3nnnn3CC(=O)O)CS[C@H]12 [Ceforanide, reference compound]

In vitro Penetration Rate (apparent flux), Parent compounds ([1]; human, 10 %, pH 7.4): <0.001 mg/cm^2/h
Compound: COCC1=C(C(=O)OC(C)OC(=O)OC(C)C)N2C(=O)[C@@H](NC(=O)/C(=N\OC)c3csc(N)n3)[C@H]2SC1 (some centres unmarked) [Cefpodoxime proxetil, reference compound]

In vitro Penetration Rate (apparent flux), Parent compounds ([1]; human, 10 %, pH 7.4): <0.001 mg/cm^2/h
Compound: CO/N=C(\C(=O)N[C@@H]1C(=O)N2C(C(=O)O)=C(COC(N)=O)CS[C@H]12)c1ccco1 [Cefuroxime, reference compound]

In vitro Penetration Rate (apparent flux), Parent compounds ([1]; human, 10 %, pH 7.4): <0.016 mg/cm^2/h
Compound: N[C@@H](C(=O)N[C@@H]1C(=O)N2C(C(=O)O)=C(Cl)CS[C@H]12)c1ccccc1 [Cefaclor, reference compound]

Compound: CN(C)CCCC(=O)Nc1ccc(S(N)(=O)=O)cc1.Cl [DMAB-sulfanilamide, 4-(4-dimethylaminobutyryl)amidobenzenesulfonamide•HCl salt]
In vitro Penetration Rate (apparent flux), HPPs of sulfonamides, sulfones, quinolones ([1]; pH 7.4): 0.18 ± 0.03 mg/cm^2/h

In vitro Penetration Rate (apparent flux), Parent compounds ([1]; human, 10 %, pH 7.4): <0.001 mg/cm^2/h
Compound: CC(=O)OCC1=C(C(=O)O)N2C(=O)[C@@H](NC(=O)Cc3cccs3)[C@H]2SC1 [Cephalothin, reference compound]

Compound: Cc1onc(-c2ccccc2Cl)c1C(=O)NC1C(=O)N2C1SC(C)(C)C2C(=O)OCCC1CCCNC1.Cl (centres unmarked) [6-[3-(o-chlorophenyl)-5-methyl-4-isoxazolecarboxamido]penicillinic acid 3-piperidineethyl ester hydrochloride]
In vitro Penetration Rate (apparent flux), HPPs ([1]; pH 7.4): 0.85 ± 0.05 mg/cm^2/h

Compound: Cl.O=C(OCCC1CCNCC1)[C@H]1/C(=C/CO)O[C@@H]2CC(=O)N21 [clavulanic acid-PEE, (2R,5R,Z)-3-(2-hydroxyethylidene)-7-oxo-4-oxa-1-aza-bicyclo[3.2.0]heptane-2-carboxylic acid 4-piperidineethyl ester•HCl salt]
In vitro Penetration Rate (apparent flux), HPPs of beta-lactamases inhibitors ([1]; pH 7.4): 0.29 ± 0.02 mg/cm^2/h

In vitro Penetration Rate (apparent flux), Parent compounds ([1]; human, 10 %, pH 7.4): <0.001 mg/cm^2/h
Compound: CO[C@@]1(NC(=O)Cc2cccs2)C(=O)N2C(C(=O)O)=C(COC(N)=O)CS[C@@H]21 [cefoxitin, reference compound]

Reference: patent publication US11485744B2, “High penetration prodrug compositions of antimicrobials and antimicrobial-related compounds” (priority 2009, dated 2022)
